Read-outs that look alike come from different tables or passages of the source.
What was measured:
[1] = mouse, in vivo; for AUC0-24: po, 300 mg/kg
[2] = test system: ECTV; details: in vivo; cited from earlier work

## O=C(NN1C(=O)C2C3C=CC(C4CC34)C2C1=O)c1ccc(C(F)(F)F)cc1 (centres unmarked) [ST-246, 4-trifluoromethyl-N-(3,3a,4,4a,5,5a,6,6a-octahydro-1,3-dioxo-4,6-ethenocycloprop[f]isoindol-2(1H)-yl)-benzamide]
[1]; female, BALB/c
  increase of apparent clearance after oral dosing: approximately 10 fold
[1]; female
  AUC0-24: 688.685 µg·h/mL
[1]; male
  AUC0-24: 669.961 µg·h/mL
[2]
  preventing or reducing mortality: highly effective in preventing or reducing mortality
  toxicity in animal model: nontoxic
